The subject of this assay is 171881-019-R-J1-PDC complex spheroid viability. Briefly: Anticancer human tumor 171881-019-R-J1-PDC patient-derived invasive breast carcinoma cell line growth inhibition. As to conditions: for viability, T/C: stronger effect = lower value. An excerpt:
Multicellular complex tumor spheroid response to LSD1 Inhibitor Iadademstat in combination with a variety of drugs and investigational agents in selected tumor cell lines
The current study was undertaken to assess response to LSD1 inhibitors in combination with standard-of-care drugs and investigational agents in solid tumor complex spheroid models as well as in the K-562 leukemia. Complex spheroids include a stromal component modeled by human endothelial cells (HUVEC) and fibroblasts modeled by human mesenchymal stem cells (MSCs). The concentration ranges selected for each drug and investigational agent were based upon clinically achievable concentrations if the clinical Cmax of the agent was known.
Compounds. The drugs and investigational agents used in this study are listed on Table 1. All of the agents used, including staurosporine (NSC755774) and gemcitabine (NSC613327), were obtained from the Developmental Therapeutics Program, NCI. FDA-approved anticancer drugs are available from the NCI at http://dtp.nci.nih.gov/branches/dscb/oncology_drugset_explanation.html. Drugs and investigational agents were >95% pure by proton nuclear magnetic resonance (NMR) and liquid chromatography/mass spectrometry (LC/MS). Stock solutions were prepared at 400x in DMSO, stored at -70 degrees C, and diluted in fresh medium prior to their use. The final concentration of DMSO in cell culture wells never exceeded 0.25% (v/v). The FDA-approved anticancer drug set is available from the Developmental Therapeutics Program at https://dtp.cancer.gov/organization/dscb/obtaining/available_plates.htm. All drugs and investigational agents were tested over a range starting from a high concentration at or near the clinical Cmax and decreasing in half-log increments. If the clinical Cmax for an agent had not been determined, the highest concentration tested was 10 microM.
Cell Lines. The patient-derived cancer cell (PDC) lines: 292921-168-R-J2-PDC, K24384-001-R-PDC, and 521955-158-R2-J5-PDC pancreatic carcinomas, 556581-035-R-J1 ovarian carcinoma, 324938-238-R-J1-PDC, 855422-203-R-J1-PDC and 883617-216-R-J1-PDC urothelial bladder carcinomas, 743489-274-T-PDC renal cell carcinoma, 138582-R-J1 Merkel cell tumor, K60290-347-R-J1 and K57222-313-R-J1-PDC glioblastomas, 653999-131-R-J2-PDC, LG0703-F948-PDC, and 349418-098-R-PDC non-small cell lung carcinomas, 885512-296-R-J2-PDC, 171881-019-R-J1-PDC breast carcinomas and 186277-243-T-J2-PDC and 233499-124-R-J2-PDC colon carcinomas were obtained from the NCI Patient-Derived Models Repository (PDMR, https://pdmr.cancer.gov). The established cell lines NCI/ADR-RES (RRID:CVCL_14520 and OVCAR-5 (RRID:CVCL_1628) ovarian carcinomas, 786-O (RRID:CVCL_1051) and A498 (RRID:CVCL_A498) renal cell carcinoma, NCI-H211 (ATCC, cat. CRL-5824; RRID:CVCL_1529), NCI-H196 (ATCC, cat. CRL-5823, RRID:CVCL_1509), SW 1271 (ATCC, cat. CRL-2177, RRID:CVCL_1716) and NCI-H1876 (ATCC, cat. CRL-5902, RRID:CVCL_1503) small cell lung carcinomas, MDA-MB-231 (RRID:CVCL_0062) and MDA-MB-468 (RRID:CVCL_0419)breast carcinomas (10-12). Pooled donor human umbilical vein endothelial cells (HUVEC, Lonza, cat. CC-2519) and human mesenchymal stem cells (hMSC, Lonza, cat. PT-2501) were purchased from Lonza (Walkersville, MD).
Cell Culture. All cells were maintained in an incubator at 37 degrees C and 5% CO2 with 95% humidity. The PDC lines were cultured according to standard operating procedures established by the NCI PDMR (https://pdmr.cancer.gov). Briefly all PDCs were thawed and cultured in Matrigel-coated flasks prepared with a working solution of 1X Ham's F-12 nutrient mix, without supplementation (Invitrogen, Waltham, MA, cat. 11765054), 100 U/mL penicillin-streptomycin (Invitrogen, cat. 15140122), and 2.5% Matrigel (Corning Inc., Corning, NY, cat. 354248) for the first three passages. […]

[1] abbreviates: curve of first compound, second compound 0.1 µM.
The mark [2] stands for this setting: curve of first compound, second compound 0.316 µM.
The mark [3] stands for this setting: curve of first compound, second compound 1 µM.
[4] abbreviates: curve of first compound, second compound 3.16 µM.
The mark [5] stands for this setting: curve of first compound, second compound 10 µM.
The mark [6] stands for this setting: second compound 0.1 µM, first compound 0.0316 µM.
The mark [7] stands for this setting: second compound 0.1 µM, first compound 0.1 µM.
Where [8] appears, read: second compound 0.1 µM, first compound 0.316 µM.
Setting [9] is: second compound 0.1 µM, first compound 1 µM.
[10] abbreviates: second compound 0.1 µM, first compound 3.16 µM.
The mark [11] stands for this setting: second compound 0.1 µM, first compound 10 µM.
The mark [12] stands for this setting: second compound 0.316 µM, first compound 0.0316 µM.
The mark [13] stands for this setting: second compound 0.316 µM, first compound 0.1 µM.
Where [14] appears, read: second compound 0.316 µM, first compound 0.316 µM.
The mark [15] stands for this setting: second compound 0.316 µM, first compound 1 µM.
[16] abbreviates: second compound 0.316 µM, first compound 3.16 µM.
Setting [17] is: second compound 0.316 µM, first compound 10 µM.
The mark [18] stands for this setting: second compound 1 µM, first compound 0.0316 µM.
Where [19] appears, read: second compound 1 µM, first compound 0.1 µM.
Setting [20] is: second compound 1 µM, first compound 0.316 µM.
Where [21] appears, read: second compound 1 µM, first compound 1 µM.
[22] abbreviates: second compound 1 µM, first compound 3.16 µM.
Setting [23] is: second compound 1 µM, first compound 10 µM.
Setting [24] is: second compound 3.16 µM, first compound 0.0316 µM.
[25] abbreviates: second compound 3.16 µM, first compound 0.1 µM.
Where [26] appears, read: second compound 3.16 µM, first compound 0.316 µM.
The mark [27] stands for this setting: second compound 3.16 µM, first compound 1 µM.
The mark [28] stands for this setting: second compound 3.16 µM, first compound 3.16 µM.
The mark [29] stands for this setting: second compound 3.16 µM, first compound 10 µM.
Setting [30] is: second compound 10 µM, first compound 0.0316 µM.
The mark [31] stands for this setting: second compound 10 µM, first compound 0.1 µM.
[32] abbreviates: second compound 10 µM, first compound 0.316 µM.
Setting [33] is: second compound 10 µM, first compound 1 µM.
The mark [34] stands for this setting: second compound 10 µM, first compound 3.16 µM.
Where [35] appears, read: second compound 10 µM, first compound 10 µM.

Several values for one entry are separate records, joined by “and”; a condition that tells them apart may be missing. Identical values can stand only once. Bounds are passed on as bounds.

As a reminder, the viability, T/C is the result in the treated group divided by that in the control group, in per cent. By IC50 is commonly meant the concentration needed to halve the response being measured.
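Also: spheroids exposed to agents for 7 days after 3 days growth.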

For the molecule `CC1COCCN1c1cc(-c2ccnn2C)c2ccnc(-c3ccn[nH]3)c2n1` (centres undefined), the viability, T/C (compound 0.00316 µM) is 55.2% and 49.8%; the viability, T/C (compound 0.01 µM) is 41.7% and 43.5%; the viability, T/C (compound 0.0316 µM) was 15.5% and 21.5%; the viability, T/C (compound 0.1 µM) is 7.25% and 9.16%; the viability, T/C (compound 0.316 µM) is 6.43% and 6.74%; the viability, T/C (compound 1 µM) is 5.29% and 6.58%. In addition, where the note is “curve of compound”, the IC50 is 4.91 nM and < 3.16 nM.

With `CC1COCCN1c1cc(C2(S(C)(=N)=O)CC2)nc(-c2ccnc3[nH]ccc23)n1` (centres undefined) + NC1CCC(NC2CC2c2ccccc2)CC1, the IC50 is, setting by setting: under setting [1], 1680 nM; under setting [2], 1840 nM; under setting [3], 1780 nM; under setting [4], 1830 nM; under setting [5], 2050 nM. For the same molecule, the viability, T/C was 85.4% under setting [6]; 85% under setting [7]; 96.4% under setting [8]; 73.3% under setting [9]; 20.8% under setting [10]; 9.16% under setting [11]. The viability, T/C by setting is: under setting [12], 85.1%; under setting [13], 84.2%; under setting [14], 94.5%; under setting [15], 81.7%; under setting [16], 21.7%; under setting [17], 9.42%. The viability, T/C reads like this: under setting [18], 88.8%; under setting [19], 85.4%; under setting [20], 87%; under setting [21], 76.2%; under setting [22], 23.7%; under setting [23], 9.58%. The viability, T/C is, setting by setting: under setting [24], 88.8%; under setting [25], 83%; under setting [26], 86.1%; under setting [27], 78.7%; under setting [28], 24.2%; under setting [29], 11.3%. In addition, the viability, T/C by setting is: under setting [30], 81.8%; under setting [31], 105%; under setting [32], 84.7%; under setting [33], 84.2%; under setting [34], 29.4%; under setting [35], 9.99%.

As for `NS(=O)(=O)OCC1CC(n2ccc3c(NC4CCc5ccccc54)ncnc32)CC1O` (centres undefined), the viability, T/C by setting is: (compound 0.00949 µM) 101% and 40.4%; (compound 0.03 µM) 44.4% and 34.8%; (compound 0.0949 µM) 25.8% and 27.8%; (compound 0.3 µM) 24.2% and 25.3%; (compound 0.949 µM) 25.5% and 29.9%; (compound 3 µM) 22.4% and 21.6%. For the same molecule, the IC50 (curve of compound) is 26.9 nM and < 9.49 nM.

In the case of `O=C(c1cc(Cc2n[nH]c(=O)c3ccccc23)ccc1F)N1CCN(C(=O)C2CC2)CC1` + NC1CCC(NC2CC2c2ccccc2)CC1, the IC50 was more than 10000 nM under setting [1]; more than 10000 nM under setting [2]; more than 10000 nM under setting [3]; more than 10000 nM under setting [4]; more than 10000 nM under setting [5]. For the same molecule, the viability, T/C by setting is: under setting [6], 85.3%; under setting [7], 86.6%; under setting [8], 82.4%; under setting [9], 86.6%; under setting [10], 84.7%; under setting [11], 85.1%. For the same molecule, the viability, T/C under setting [12] was 91.7%; the viability, T/C under setting [13] is 82.7%; the viability, T/C under setting [14] is 87.7%; the viability, T/C under setting [15] is 79.6%; the viability, T/C under setting [16] was 86.2%; the viability, T/C under setting [17] is 82%. Moreover, the viability, T/C reads like this: under setting [18], 90.6%; under setting [19], 95.9%; under setting [20], 88.9%; under setting [21], 79.9%; under setting [22], 85.8%; under setting [23], 80%. Moreover, the viability, T/C under setting [24] is 99.8%; the viability, T/C under setting [25] is 87.8%; the viability, T/C under setting [26] is 86.3%; the viability, T/C under setting [27] is 79.3%; the viability, T/C under setting [28] is 88.4%; the viability, T/C under setting [29] was 80.9%. Besides, the viability, T/C is 83.8% under setting [30]; 82.9% under setting [31]; 78.3% under setting [32]; 74.2% under setting [33]; 81.9% under setting [34]; 80.5% under setting [35].

Values taken from PubChem BioAssay AID1918932 (Molecular Pharmacology Branch, DTP, NCI, 2023).
